We go through 1 molecule from patent US5486516A, “Furopyrimidine derivatives” (DowElanco, priority 1993, dated 1996).

The structures appear in SMILES notation.

Usually mortality stands for the percentage killed.

The test system of data set [1] is Pyricularia oryzae (rice blast). Briefly: whole plant or invertebrate. Type of data set: in vivo. Conditions: foliar, read-out: RICE BLAST control rating.
For data set [2], the system named is Puccinia recondita tritici (leaf rust). Briefly: Plant pathology screen (Test 1), leaf rust on wheat. Conditions: in Triticum aestivum, foliar, read-out: LEAF RUST control rating.
In data set [3] the test system is southern armyworm (Spodopetra eridania Cramer). Briefly: Mite/insect screen, Southern armyworm. Type of data set: in vivo. The settings on record: rate 400 ppm, sprayed leaves. In a few lines: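 Compounds in acetone/alcohol with Toximul emulsifiers, diluted in water, sprayed to runoff on squash leaves at 10 psi and dried 1 h. Excised treated leaves fed to southern armyworm larvae in Petri dishes; percent mortality scored after standard exposure.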

In data set [4] the test system is Erysiphe graminis tritici (powdery mildew). Briefly: Plant pathology screen (Test 1), powdery mildew on wheat. Conditions: Blumeria graminis, in Triticum aestivum, foliar, read-out: POWD MDEW control rating.
Data set [5] has as its system melon aphids (Aphis gossvpii Glover). The experiment in a line: Mite/insect screen, melon aphids. The format is in vivo. The settings on record: rate 400 ppm, sprayed leaves. In short, it runs like this:
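Aphids established on squash cotyledons were sprayed to runoff with compound in acetone/alcohol with sulfonate/nonionic emulsifiers, diluted in water to test concentrations. Leaves dried 1 h. Percent mortality scored after standard exposure periods.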

The test system of data set [6] is Pseudoperonospora cubensis (downy mildew). Briefly: Plant pathology screen (Test 1), downy mildew on squash. The settings on record: foliar, read-out: DOWN MDEW control rating.
Data set [7] deals with Southern corn rootworm (Diabrotica undecimpuctata howardi Barber). Briefly: Mite/insect screen, corn rootworm. The format is in vivo. Conditions: CRW rate 24.00 ppm, soil. In short, it runs like this:
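Compound in acetone/alcohol with emulsifiers, diluted with water; 1 mL applied to 15 g dry sandy soil holding a presoaked corn seed. After 6–12 h drying, five 2-3 instar larvae added, held at 23° C; percent mortality and phytotoxicity scored after standard exposure periods.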

Data set [8] relates to Twospotted spider mites (Tetranychus urticae Koch). Briefly: Mite/insect screen, twospotted spider mites. The format is in vivo. Conditions: rate 400 ppm, sprayed leaves. In a few lines: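 Squash cotyledons infested with mites were sprayed to runoff at 10 psi with compound in acetone/alcohol plus emulsifiers, diluted in water to the stated concentrations. Percent mortality and phytotoxicity were scored after standard exposure periods.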

Data set [9] has as its system Botrytis cinerea (gray mold). The experiment in a line: Plant pathology screen (Test 1), gray mold on grape berries. The settings on record: read-out: GRAY MOLD control rating.

Turning to `Cc1oc2ncn(CCc3cccc(C(F)(F)F)c3)c(=N)c2c1C` [Example 81, 3-[2-[3-(trifluoromethyl)phenyl]ethyl]-5,6-dimethylfuro[2,3-d]pyrimidin-4(3H)-imine], the pest or weed control at 400 µg/mL lay within 90 to 100% in data set [1]; 90 to 100% in data set [2]; 20 to 89% in data set [4]; 90 to 100% in data set [6]; 0 to 19% in data set [9]. For the same molecule, the mortality at 400 ppm in data set [3] (Spodoptera eridania, read-out: SAW results (percent mortality)) was determined as 0%; in data set [5] (Aphis, read-out: MA results (percent mortality)), 0%; in [8] (Tetranychus urticae, read-out: SM results (percent mortality)), 0%. In data set [3], the “SAW results (percent mortality)” value is reported as 0%. In data set [5], the “MA results (percent mortality)” value is given as 0%. In addition, the “CRW results (percent mortality)” value in [7] is reported as 0%. Besides, the mortality at 24 ppm in [7] (Diabrotica, read-out: CRW results (percent mortality)) was found to be 0%. Moreover, the “SM results (percent mortality)” value in [8] turned out to be 0%.
